Read-outs that look alike come from different tables or passages of the source.
Key:
[1] = target: T1, aminopeptidase M (Sus scrofa, UniProt P15145); assay: Selectivity against various proteases: aminopeptidase M (APM); assay type: biochemical, porcine
T1 construct: Purified aminopeptidase M from porcine kidney; from tissue; host or cells: porcine kidney
T1 sequence (P15145 1-963): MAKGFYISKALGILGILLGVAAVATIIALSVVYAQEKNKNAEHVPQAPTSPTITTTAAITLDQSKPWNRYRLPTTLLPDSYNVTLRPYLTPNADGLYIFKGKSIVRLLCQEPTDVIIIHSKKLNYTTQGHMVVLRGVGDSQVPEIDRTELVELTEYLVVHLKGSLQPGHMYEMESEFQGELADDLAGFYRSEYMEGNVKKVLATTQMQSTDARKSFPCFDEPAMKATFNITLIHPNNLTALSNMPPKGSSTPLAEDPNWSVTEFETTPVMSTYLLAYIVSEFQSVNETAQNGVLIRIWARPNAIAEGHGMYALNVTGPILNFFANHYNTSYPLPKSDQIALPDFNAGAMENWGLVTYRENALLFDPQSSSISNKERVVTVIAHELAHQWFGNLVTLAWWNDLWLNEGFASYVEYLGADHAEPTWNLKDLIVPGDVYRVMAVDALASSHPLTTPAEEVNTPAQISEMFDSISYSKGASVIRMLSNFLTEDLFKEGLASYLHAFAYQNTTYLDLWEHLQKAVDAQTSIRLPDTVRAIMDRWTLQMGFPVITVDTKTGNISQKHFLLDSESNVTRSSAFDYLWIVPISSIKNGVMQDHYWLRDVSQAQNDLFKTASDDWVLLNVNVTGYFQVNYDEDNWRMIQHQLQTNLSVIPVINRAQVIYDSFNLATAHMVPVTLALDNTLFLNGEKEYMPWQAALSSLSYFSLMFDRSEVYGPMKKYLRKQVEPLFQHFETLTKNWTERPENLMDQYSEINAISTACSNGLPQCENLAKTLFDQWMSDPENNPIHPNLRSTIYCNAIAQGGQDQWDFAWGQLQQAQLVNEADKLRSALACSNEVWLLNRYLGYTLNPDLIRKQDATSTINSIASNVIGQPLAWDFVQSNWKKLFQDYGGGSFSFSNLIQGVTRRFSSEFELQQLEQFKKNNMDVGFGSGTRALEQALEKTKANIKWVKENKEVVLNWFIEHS

[2] = target: T2, cathepsin C (Bos taurus, UniProt Q3ZCJ8); assay: Selectivity against various proteases: cathepsin C (CTC); assay type: biochemical, bovine
T2 construct: Purified cathepsin C from bovine spleen; from tissue; host or cells: bovine spleen

[3] = target: T3, thrombin (Homo sapiens, UniProt P00734); assay: Selectivity against various proteases: thrombin (THR); assay type: biochemical; conditions: human plasma, pH 8.6, 22° C., 10 minute preincubation
T3 construct: Purified thrombin from human plasma; from tissue; host or cells: human plasma
Description: TRY = trypsin, THR = thrombin, PLM = plasmin, CTC = cathepsin C, APM =
Enzyme: Purified thrombin from human plasma
Substrate: Tosyl-glycyl-L-prolyl-L-arginine-p-NA acetate
50 mM Tricine-NaOH buffer (PH 8.6)
(§1) Except for Cathepsin D, the enzyme activities were determined by monitoring the increase in absorbance at 410 nm caused by the hydrolysis of chromogenic substrates. The activity of Cathepsin D was determined by monitoring the absorbance of 5% trichloroacetic acid-soluble material at 280 nm.
(§2) Inhibition of enzymes by the compounds described were determined after a 10 minute preincubation with enzymes in reaction mixtures minus substrate. Reactions were initiated by the addition of substrates. The concentration used for assays were porcine pancreatic elastase at 240 nM and human Cathepsin G at 50 nM. Cathepsin D was used at the concentration that produced approximately 0.15 O.D. increase per 20 min at 280 nm under the standard conditions. All other proteases were assayed at the concentrations that produced approximately 0.1 O.D. change per minute at 410 nm under the standard conditions.

[4] = target: T4, cathepsin D (Bos taurus, UniProt P80209); assay: Selectivity against various proteases: cathepsin D (CTD); assay type: biochemical, bovine
T4 construct: Purified cathepsin D from bovine spleen; from tissue; host or cells: bovine spleen

[5] = target: T5, trypsin (Bos taurus, UniProt P00760); assay: Selectivity against various proteases: trypsin (TRY); assay type: biochemical, bovine
T5 construct: Purified trypsin from bovine pancreas; from tissue; host or cells: bovine pancreas
T5 sequence (P00760 24-246): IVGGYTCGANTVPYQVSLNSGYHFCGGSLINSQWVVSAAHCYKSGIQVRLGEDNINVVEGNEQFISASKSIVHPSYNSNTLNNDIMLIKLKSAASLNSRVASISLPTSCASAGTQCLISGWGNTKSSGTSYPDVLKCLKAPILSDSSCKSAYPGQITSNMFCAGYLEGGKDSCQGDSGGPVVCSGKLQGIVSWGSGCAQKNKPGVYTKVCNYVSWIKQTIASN

[6] = target: T6, porcine pancreatic elastase (Sus scrofa, UniProt P00772); assay: Selectivity against various proteases: porcine pancreatic elastase (PPE); assay type: biochemical
T6 construct: Purified elastase from porcine pancreas; from tissue; host or cells: porcine pancreas
Description: Porcine Pancreatic Elastase (PPE)
Enzyme: Purified elastase from porcine pancreas
Substrate: MeO-succinyl-L-alanyl-L-alanyl-L-prolyl-L-valine-pNA
50 mM Tris[Tris(hydroxymethyl) aminomethane]. HCl buffer (pH 8.9)
as §1
as §2, with “The concentration used for assays were porcine pancreatic elastase at 240 nM and human Cathepsin G at 50 nM.” left out

[7] = target: T7, cathepsin G (Homo sapiens, UniProt P08311); assay: Selectivity against various proteases: cathepsin G (CTG); assay type: biochemical; conditions: cathepsin G 50 nM, human white blood cells, pH 7.5, 30° C., 10 minute preincubation
T7 construct: Purified Cathepsin G from human white blood cells; from tissue; host or cells: human white blood cells
T7 sequence (P08311 21-244 limits assumed): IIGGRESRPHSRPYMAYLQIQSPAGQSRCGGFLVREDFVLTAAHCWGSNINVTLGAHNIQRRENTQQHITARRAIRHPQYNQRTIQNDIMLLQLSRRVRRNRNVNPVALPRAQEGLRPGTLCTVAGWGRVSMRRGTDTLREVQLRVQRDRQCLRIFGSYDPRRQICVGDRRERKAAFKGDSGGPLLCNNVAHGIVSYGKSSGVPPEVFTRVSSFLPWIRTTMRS
Description: as §2, with “Reaction mixture: […] 500 mM NaCl […] 2.0 mM Substrate Except for Cathepsin D, the enzyme activities were determined by monitoring the increase in absorbance at 410 nm caused by the hydrolysis of chromogenic substrates. The activity of Cathepsin D was determined by monitoring the absorbance of 5% trichloroacetic acid-soluble material at 280 nm. Inhibition” for “Inhibition”

[8] = cathepsin D, bovine spleen, pH 3.2, 30° C., 10 minute preincubation, read-out: CTD IC50 (converted)
[9] = aminopeptidase M, porcine kidney, pH 7.5, 22° C., 10 minute preincubation, read-out: APM IC50 (converted)
[10] = cathepsin C, bovine spleen, pH 5.4, 22° C., 10 minute preincubation, read-out: CTC IC50 (converted)
[11] = trypsin, bovine pancreas, pH 8.8, 22° C., 10 minute preincubation, read-out: TRY IC50 (converted)
[12] = porcine pancreatic elastase 240 nM, pH 8.9, 30° C., 10 minute preincubation, read-out: PPE IC50 (converted)

T6 sequence (P00772 27-266): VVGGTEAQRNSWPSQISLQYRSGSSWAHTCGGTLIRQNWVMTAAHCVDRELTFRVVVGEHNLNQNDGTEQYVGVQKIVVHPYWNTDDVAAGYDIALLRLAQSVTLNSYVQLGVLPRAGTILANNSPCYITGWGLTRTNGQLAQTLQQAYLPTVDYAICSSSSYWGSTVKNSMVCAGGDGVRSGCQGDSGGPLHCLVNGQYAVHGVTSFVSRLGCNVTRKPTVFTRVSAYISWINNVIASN
T2 sequence (Q3ZCJ8 231-394 limits assumed): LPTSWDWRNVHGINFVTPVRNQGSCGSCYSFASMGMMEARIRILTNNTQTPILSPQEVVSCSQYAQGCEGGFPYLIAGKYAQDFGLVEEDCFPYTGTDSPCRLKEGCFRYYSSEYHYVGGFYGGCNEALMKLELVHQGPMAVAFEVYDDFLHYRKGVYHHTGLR
T2 sequence (Q3ZCJ8 395-463 limits assumed): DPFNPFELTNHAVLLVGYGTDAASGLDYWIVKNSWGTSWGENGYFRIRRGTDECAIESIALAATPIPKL
T2 sequence (Q3ZCJ8 25-134 limits assumed): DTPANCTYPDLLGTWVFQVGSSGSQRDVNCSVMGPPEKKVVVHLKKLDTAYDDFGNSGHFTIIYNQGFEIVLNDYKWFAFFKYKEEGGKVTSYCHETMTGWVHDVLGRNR
T4 sequence (P80209 45-390): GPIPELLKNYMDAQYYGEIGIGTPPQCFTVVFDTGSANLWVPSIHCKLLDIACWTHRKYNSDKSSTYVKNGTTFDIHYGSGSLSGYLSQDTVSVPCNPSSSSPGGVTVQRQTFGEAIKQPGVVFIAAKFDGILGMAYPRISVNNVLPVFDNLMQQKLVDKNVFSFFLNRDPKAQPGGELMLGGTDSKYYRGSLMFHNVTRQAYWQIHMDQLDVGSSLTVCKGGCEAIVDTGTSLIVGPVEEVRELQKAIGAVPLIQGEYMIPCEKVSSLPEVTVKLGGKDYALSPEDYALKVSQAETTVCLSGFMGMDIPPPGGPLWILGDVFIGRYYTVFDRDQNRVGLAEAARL

Row | Compound | IC50 [1] | IC50 [2] | IC50 [3] | IC50 [4, 8] | TRY IC50 ([5]; trypsin, bovine pancreas, pH 8.8, 22° C., 10 minute preincubation) | IC50 [1, 9] | IC50 [2, 10] | IC50 [5] | IC50 [7] | IC50 [6, 12] | IC50 [4] | IC50 [6] | IC50 [5, 11]
1 | CC1=C(C(=O)OC(c2ccccc2)c2ccccc2)N2C(=O)[C@H](Br)[C@H]2S(=O)(=O)C12CC2(C)c1ccccc1 (stereo partly drawn) [Example 13 (2), Benzhydryl 7α-bromo-2-spiro(2'-phenyl-2'-methyl) cyclopropyl-3-methyl-3-cephem-4-carboxylate-1,1-dioxide] | 40 µM | 40 µM | 40 µM | 50 µM | 0.089 µg/mL |  |  |  |  |  |  |  | 
2 | CCOC(=O)C1CC12C(C)=C(C(=O)OC(c1ccccc1)c1ccccc1)N1C(=O)[C@H](Br)[C@H]1S2(=O)=O (stereo partly drawn) [Example 13 (1), Benzhydryl 7α-bromo-2-spiro(2'-ethoxycarbonyl)cyclo propyl-3-methyl-3-cephem-4-carboxylate-1,1-dioxide] | 40 µM | 40 µM | 40 µM |  |  |  |  |  |  |  |  |  | 
3 | CC1=C(C(=O)OC(c2ccccc2)c2ccccc2)N2C(=O)[C@H](Br)[C@H]2S(=O)(=O)C12CC2(c1ccc(Cl)cc1)c1ccc(Cl)cc1 (single isomer, unassigned) [Example 12, Benzhydryl 7α-bromo-2-spiro [2',2'-(4',4'-dichloro)diphenyl]cyclopropyl-3-methyl-3-cephem-4-carboxylate-1,1-dioxide] | 55.3 µM | 55.3 µM | 55.3 µM | 46.2 µM |  |  |  |  |  |  |  |  | 
4 | CO[C@H]1C(=O)N2C(C(=O)N3CCCCC3)=C(C)C3(CC3(c3ccccc3)c3ccccc3)S(=O)(=O)[C@H]12 (stereo partly drawn) [Example 11, 7α-Methoxy-2-spiro (2',2'-diphenyl)cyclopropyl-3-methyl-3-cephem-4-piperidine carboxamide-1,1-dioxide] |  |  | 39.9 µM | 10 µM |  | 10 µM | 10 µM |  |  |  |  | 0.0316 µM | 10 µM
5 | CC1=C(C(=O)OC(c2ccccc2)c2ccccc2)N2C(=O)[C@H](Cl)[C@H]2S(=O)(=O)C12CC2(c1ccccc1)c1ccccc1 (single isomer, unassigned) [Example 1, Benzhydryl 7α-chloro-2-spiro(2',2'-diphenyl) cyclopropyl-3-methyl-3-cephem-4-carboxylate-1,1-dioxide] |  |  | 40 µM | 17.2 µM |  | 60 µM | 60 µM |  | 20 µM |  |  |  | 60 µM
6 | CO[C@H]1C(=O)N2C(C(=O)N3CCCC3)=C(C)C3(CC3(c3ccccc3)c3ccccc3)S(=O)(=O)[C@H]12 (stereo partly drawn) [Example 10, 7-α-Methoxy-2-spiro (2',2'-diphenyl)cyclopropyl-3-methyl-3-cephem-4-pyrrolidine carboxamide-1,1-dioxide] | 40 µM |  | 40 µM | 9.99 µM |  |  | 9.99 µM | 40 µM | 30.9 µM | 0.0954 µM |  |  | 
7 | CC1=C(C(=O)OC(c2ccccc2)c2ccccc2)N2C(=O)[C@H](Br)[C@H]2S(=O)(=O)C12CC2(c1ccc(F)cc1)c1ccc(F)cc1 (single isomer, unassigned) [Example 13, Benzhydryl 7α-bromo-2-spiro[2',2'-(4',4'-difluoro)diphenyl] cyclopropyl-3-methyl-3-cephem-4-carboxylate-1,1-dioxide] | 40 µM | 40 µM | 40 µM | 50 µM |  |  |  | 40 µM |  |  |  |  | 

More lines, main results first:

Row | IC50 [1] | IC50 [2] | IC50 [3] | IC50 [4, 8] | TRY IC50 ([5]; trypsin, bovine pancreas, pH 8.8, 22° C., 10 minute preincubation) | IC50 [1, 9] | IC50 [2, 10] | IC50 [5] | IC50 [7] | IC50 [6, 12] | IC50 [4] | Compound | IC50 [6] | IC50 [5, 11]
8 |  |  | 39 µM | 9.77 µM |  | 9.77 µM | 9.77 µM | 39 µM |  |  |  | CC1=C(C(=O)N2CCCC2)N2C(=O)[C@H](Br)[C@H]2S(=O)(=O)C12CC2(c1ccccc1)c1ccccc1 (stereo partly drawn) [Example 6, 7α Bromo-2-spiro(2',2'-diphenyl)cyclopropyl-3-methyl-3-cephem-4-pyrrolidine carboxamide-1,1-dioxide] |  | 
9 | 10 µM | 10 µM | 10 µM |  |  |  |  | 10 µM |  | 0.0578 µM | 10 µM | CO[C@H]1C(=O)N2C(C(=O)OC(c3ccccc3)c3ccccc3)=C(C)C3(CC3(c3ccccc3)c3ccccc3)S(=O)(=O)[C@H]12 (stereo partly drawn) [Example 9, Benzhydryl 7α-methoxy-2-spiro (2',2'-diphenyl) cyclopropyl-3-methyl-3-cephem-4-carboxylate-1,1-dioxide] |  | 
10 | 9.98 µM | 9.98 µM | 9.98 µM |  |  |  |  |  |  |  | 9.98 µM | CO[C@H]1C(=O)N2C(C(=O)OCC(Cl)(Cl)Cl)=C(C)C3(CC3(c3ccccc3)c3ccccc3)S(=O)(=O)[C@H]12 (stereo partly drawn) [Example 8, 2,2,2-Trichloroethyl-7α-methoxy-2-spiro(2',2'-diphenyl) cyclo-propyl-3-methyl-3-cephem-4-carboxylate-1,1-dioxide] |  | 

Source: patent publication US5264430A, “2-spirocyclopropyl cephalosporin sulfone derivatives” (SynPhar Laboratories, Inc., priority 1991, dated 1993)
